Values belong to the compound of their own block, whether it stands above or below them.
Legend:
Assay type in all cases: cell-based
ALK = target: T1, ALK (Homo sapiens, UniProt Q9UM73); experiment: Western blot, degradation of ALK in H3122 cells; conditions: for degradation of ALK: 16-hour treatment, 0.01-1 μM
T1 construct: EML4 N-terminal fusion partner (human entry Q9HC35); endogenous in cells; host or cells: H3122; the other entry of the earlier key: EML4 (Q9HC35, Echinoderm microtubule-associated protein-like 4)
T1 sequence (Q9UM73 with tags, fused parts or gaps): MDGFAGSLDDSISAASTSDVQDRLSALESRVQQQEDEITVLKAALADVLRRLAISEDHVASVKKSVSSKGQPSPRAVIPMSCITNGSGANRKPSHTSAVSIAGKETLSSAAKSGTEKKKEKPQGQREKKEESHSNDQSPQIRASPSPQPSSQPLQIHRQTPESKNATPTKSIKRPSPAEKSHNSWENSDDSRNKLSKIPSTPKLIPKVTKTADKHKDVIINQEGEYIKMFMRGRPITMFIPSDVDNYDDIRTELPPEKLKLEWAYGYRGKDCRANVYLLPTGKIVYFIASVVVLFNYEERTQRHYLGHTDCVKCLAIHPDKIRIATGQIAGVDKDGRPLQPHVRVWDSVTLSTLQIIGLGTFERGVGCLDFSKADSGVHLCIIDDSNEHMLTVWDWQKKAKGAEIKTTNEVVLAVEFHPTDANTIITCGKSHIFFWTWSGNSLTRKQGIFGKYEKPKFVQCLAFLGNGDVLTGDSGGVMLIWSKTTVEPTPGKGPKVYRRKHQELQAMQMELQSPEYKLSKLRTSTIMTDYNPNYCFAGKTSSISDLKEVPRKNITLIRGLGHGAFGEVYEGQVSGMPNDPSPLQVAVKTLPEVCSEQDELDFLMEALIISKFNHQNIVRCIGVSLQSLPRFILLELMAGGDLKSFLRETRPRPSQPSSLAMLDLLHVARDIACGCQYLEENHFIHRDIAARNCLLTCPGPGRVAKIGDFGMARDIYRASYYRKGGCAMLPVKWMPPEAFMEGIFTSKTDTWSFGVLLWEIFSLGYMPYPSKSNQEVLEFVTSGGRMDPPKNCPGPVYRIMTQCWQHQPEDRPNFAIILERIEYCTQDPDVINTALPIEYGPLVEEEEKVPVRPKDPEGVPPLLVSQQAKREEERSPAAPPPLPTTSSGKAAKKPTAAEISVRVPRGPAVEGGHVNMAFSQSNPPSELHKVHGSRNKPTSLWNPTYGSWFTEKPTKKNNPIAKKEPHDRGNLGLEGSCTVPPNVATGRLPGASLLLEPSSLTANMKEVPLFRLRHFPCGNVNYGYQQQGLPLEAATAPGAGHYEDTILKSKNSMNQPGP
Procedure: (§1) Blotting: Cells were washed with PBS before being lysed with Cell Lysis Buffer (Cell Signaling Technology®) supplemented with protease and phosphatase inhibitor cocktails (Roche™) at 4° C. for 15 minutes. The cell lysate was vortexed every 5 minutes over a 30-minute period before being centrifuged at 14,000×g for 20 min at 4° C. Protein in cell lysate was quantified by BCA assay (Pierce™). Primary antibodies used in this study include ALK (Cell Signaling Technology®, D5F3), Aurora A (Cell Signaling Technology®, 1F8), FAK (PTK2) (Cell Signaling Technology®, #3285), and GAPDH (Cell Signaling Technology®, 14C10). Blot quantification was performed using Image Studio™ 4.0 software, normalizing to loading control (GAPDH).

H3122 cells = experiment: CellTiter-Glo cell viability, anti-proliferative activity in H3122 cells; conditions: 72 hours, FIG. 1A
Procedure: (§2) CellTiter-Glo®: Cell viability was evaluated using the CellTiter-Glo® Luminescent Cell Viability Assay (Promega™) following the manufacturer's standards. 12-point dose titrations were tested in triplicate from 10000 nM to 0.056 nM over 72 hours. Anti-proliferative best fit EC50 values with 95% CI are shown as calculated by Graphpad Prism™ 7 software.

Aurora A = target: T2, Aurora A (Homo sapiens, UniProt O14965); experiment: Western blot, off target degradation of Aurora A in H3122 cells; conditions: 16-hour treatment, 0.01-1 μM
T2 construct: ALK and aurora A degradation in H3122 cells; endogenous in cells; host or cells: H3122
T2 sequence (O14965 1-403): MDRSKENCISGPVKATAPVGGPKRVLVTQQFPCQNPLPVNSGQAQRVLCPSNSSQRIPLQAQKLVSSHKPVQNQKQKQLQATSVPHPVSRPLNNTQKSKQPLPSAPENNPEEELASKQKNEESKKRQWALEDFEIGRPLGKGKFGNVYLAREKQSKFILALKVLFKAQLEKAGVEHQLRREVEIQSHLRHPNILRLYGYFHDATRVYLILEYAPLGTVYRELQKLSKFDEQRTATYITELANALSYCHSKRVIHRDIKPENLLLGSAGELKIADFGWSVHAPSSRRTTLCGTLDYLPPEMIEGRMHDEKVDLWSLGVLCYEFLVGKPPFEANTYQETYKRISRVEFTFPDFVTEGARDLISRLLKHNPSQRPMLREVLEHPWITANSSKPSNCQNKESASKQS
Procedure: as §1

FAK (PTK2) = target: T3, FAK (PTK2) (Homo sapiens, UniProt Q05397); experiment: Western blot, off target degradation of PTK2 in H3122 cells
T3 construct: endogenous in cells; host or cells: H3122
T3 sequence (Q05397 whole entry): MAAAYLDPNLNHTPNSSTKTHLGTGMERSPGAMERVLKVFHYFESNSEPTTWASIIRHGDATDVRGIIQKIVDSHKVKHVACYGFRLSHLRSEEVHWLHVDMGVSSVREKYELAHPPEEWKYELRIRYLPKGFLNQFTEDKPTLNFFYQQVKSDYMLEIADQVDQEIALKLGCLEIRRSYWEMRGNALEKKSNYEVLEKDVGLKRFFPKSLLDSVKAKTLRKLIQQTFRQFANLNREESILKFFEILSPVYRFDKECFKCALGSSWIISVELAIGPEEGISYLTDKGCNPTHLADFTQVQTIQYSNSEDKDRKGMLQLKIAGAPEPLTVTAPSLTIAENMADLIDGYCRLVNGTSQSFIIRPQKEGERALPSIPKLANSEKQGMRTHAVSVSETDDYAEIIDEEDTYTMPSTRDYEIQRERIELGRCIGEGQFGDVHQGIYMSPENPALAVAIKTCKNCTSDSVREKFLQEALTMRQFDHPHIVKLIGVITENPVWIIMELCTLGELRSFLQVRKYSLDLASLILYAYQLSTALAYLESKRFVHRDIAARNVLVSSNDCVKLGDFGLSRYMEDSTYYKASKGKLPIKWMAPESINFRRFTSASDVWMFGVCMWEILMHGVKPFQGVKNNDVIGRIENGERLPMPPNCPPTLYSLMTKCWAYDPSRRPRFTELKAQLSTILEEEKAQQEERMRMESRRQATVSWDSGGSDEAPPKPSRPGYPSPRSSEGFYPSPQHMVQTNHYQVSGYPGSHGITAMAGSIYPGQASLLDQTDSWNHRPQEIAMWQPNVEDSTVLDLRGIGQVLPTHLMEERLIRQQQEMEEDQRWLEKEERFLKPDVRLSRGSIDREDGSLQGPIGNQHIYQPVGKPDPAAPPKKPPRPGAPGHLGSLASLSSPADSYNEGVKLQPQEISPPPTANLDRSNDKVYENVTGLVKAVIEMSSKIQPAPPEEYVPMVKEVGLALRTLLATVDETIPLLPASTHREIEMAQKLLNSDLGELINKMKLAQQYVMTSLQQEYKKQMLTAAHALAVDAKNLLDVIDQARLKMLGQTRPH
Procedure: as §1

[1] = tested on: EML4-ALK with secondary mutations L1196M, C1156Y, or G1202R; experiment: CellTiter-Glo cell viability, ALK-positive Ba/F3 cells with EML4-ALK secondary mutations; conditions: 72 hours, FIG. 1A
Procedure: as §2

[2] = tested on: EML4-ALK expressing cell lines; experiment: CellTiter-Glo cell viability, EML4-ALK expressing cell lines; conditions: 72 hours, FIG. 2A / 3A
Procedure: as §2
The experimental protocol was as in Example 15.

Structure (SMILES): CCc1cc2c(cc1N1CCC(N3CCN(C(=O)CCOCCOCCOCCOCCNc4cccc5c4C(=O)N(C4CCC(=O)NC4=O)C5=O)CC3)CC1)C(C)(C)c1[nH]c3cc(C#N)ccc3c1C2=O (stereo not shown) [Compound 1, 8-(4-(4-(1-((2-(2,6-dioxopiperidin-3-yl)-1,3-dioxoisoindolin-4-yl)amino)-3,6,9,12-tetraoxapentadecan-15-oyl)piperazin-1-yl)piperidin-1-yl)-9-ethyl-6,6-dimethyl-11-oxo-6,11-dihydro-5H-benzo[b]carbazole-3-carbonitrile]
- degradation of ALK (ALK): ability to degrade ALK in a dose dependent manner
- anti-proliferative activity in H3122 cells (H3122 cells): comparable to compound 12
- off target degradation of Aurora A (Aurora A): Off target degradation of Aurora A was also seen
- off target degradation of PTK2 (FAK (PTK2); 16-hour treatment, 0.01-1 μM): very low
- activity against EML4-ALK with secondary mutations L1196M, C1156Y, or G1202R [1]: comparable to the parental inhibitor alectinib

Structure (SMILES): CCc1cc2c(cc1N1CCC(N3CCN(C(=O)CCOCCOCCNc4cccc5c4C(=O)N(C4CCC(=O)NC4=O)C5=O)CC3)CC1)C(C)(C)c1[nH]c3cc(C#N)ccc3c1C2=O (stereo not shown) [Compound 2, 8-(4-(4-(3-(2-(2-((2-(2,6-dioxopiperidin-3-yl)-1,3-dioxoisoindolin-4-yl)amino)ethoxy)ethoxy)propanol)piperazin-1-yl)piperidin-1-yl)-9-ethyl-6,6-dimethyl-11-oxo-6,11-dihydro-5H-benzo[b]carbazole-3-carbonitrile]
- degradation of ALK (ALK): ability to degrade ALK in a dose dependent manner
- anti-proliferative activity in H3122 cells (H3122 cells): comparable to compound 12
- off target degradation of Aurora A (Aurora A): Off target degradation of Aurora A was also seen
- off target degradation of PTK2 (FAK (PTK2); 16-hour treatment, 0.01-1 μM): very low
- activity against EML4-ALK with secondary mutations L1196M, C1156Y, or G1202R [1]: comparable to the parental inhibitor alectinib

Structure (SMILES): CCc1cc2c(cc1-c1cnn(CC(=O)NCCOCCOCCNc3cccc4c3C(=O)N(C3CCC(=O)NC3=O)C4=O)c1)C(C)(C)c1[nH]c3cc(C#N)ccc3c1C2=O (stereo not shown) [Compound 4, 2-(4-(3-cyano-9-ethyl-6,6-dimethyl-11-oxo-6,11-dihydro-5H-benzo[b]carbazol-8-yl)-1H-pyrazol-1-yl)-N-(2-(2-(2-((2-(2,6-dioxopiperidin-3-yl)-1,3-dioxoisoindolin-4-yl)amino)ethoxy)ethoxy)ethyl)acetamide]
- degradation of ALK (ALK): did not degrade ALK to a significant extent

Structure (SMILES): CCc1cc2c(cc1-c1cnn(CC(=O)NCCOCCOCCOCCOCCNc3cccc4c3C(=O)N(C3CCC(=O)NC3=O)C4=O)c1)C(C)(C)c1[nH]c3cc(C#N)ccc3c1C2=O (stereo not shown) [Compound 6, 2-(4-(3-cyano-9-ethyl-6,6-dimethyl-11-oxo-6,11-dihydro-5H-benzo[b]carbazol-8-yl)-1H-pyrazol-1-yl)-N-(14-((2-(2,6-dioxopiperidin-3-yl)-1,3-dioxoisoindolin-4-yl)amino)-3,6,9,12-tetraoxatetradecyl)acetamide]
- degradation of ALK (ALK): did not degrade ALK to a significant extent

Further lines, with some results ahead:

- degradation of ALK (ALK): significant degradation of ALK
Structure (SMILES): CCc1cc2c(cc1-c1cnn(CC(=O)NCCOCCOCCOCCOCCOCCOCCNc3cccc4c3C(=O)N(C3CCC(=O)NC3=O)C4=O)c1)C(C)(C)c1[nH]c3cc(C#N)ccc3c1C2=O (stereo not shown) [Compound 5, 2-(4-(3-cyano-9-ethyl-6,6-dimethyl-11-oxo-6,11-dihydro-5H-benzo[b]carbazol-8-yl)-1H-pyrazol-1-yl)-N-(20-((2-(2,6-dioxopiperidin-3-yl)-1,3-dioxoisoindolin-4-yl)amino)-3,6,9,12,15,18-hexaoxaicosyl)acetamide]
- anti-proliferative activity in EML4-ALK expressing cell lines [2]: slightly better activity than the other members of this group

- time at which ALK degradation is seen (ALK; time course, 100 nM): around 4 hours
- time of maximum ALK degradation (ALK; time course, 100 nM): around 8 hours
Structure (SMILES): Cc1cc(Nc2ncc(Cl)c(Nc3ccccc3S(=O)(=O)C(C)C)n2)c(OC(C)C)cc1C1CCN(CCOCCOCCNC(=O)CNc2cccc3c2C(=O)N(C2CCC(=O)NC2=O)C3=O)CC1 (stereo not shown) [Compound 12, N-(2-(2-(2-(4-(4-((5-Chloro-4-((2-(isopropylsulfonyl)phenyl)-amino)pyrimidin-2-yl)amino)-5-isopropoxy-2-methylphenyl)-piperidin-1yl)ethoxy)ethoxy)ethyl)-2-((2-(2,6-dioxopiperidin-3-yl)-1,3-dioxoisoindolin-4-yl)amino)acetamide]
- off target degradation of PTK2 (FAK (PTK2); time course, 100 nM): off target degradation activity against PTK2 that was seen

- degradation of PTK2 (FAK (PTK2); 16-hour treatment, 1 μM): slight degradation of PTK2
Structure (SMILES): CCc1cc2c(cc1-c1cnn(CC(=O)N(C)CCOCCOCCOCCNc3cccc4c3C(=O)N(C3CCC(=O)NC3=O)C4=O)c1)C(C)(C)c1[nH]c3cc(C#N)ccc3c1C2=O (stereo not shown) [Compound 8, 2-(4-(3-cyano-9-ethyl-6,6-dimethyl-11-oxo-6,11-dihydro-5H-benzo[b]carbazol-8-yl)-1H-pyrazol-1-yl)-N-(2-(2-(2-(2-((2-(2,6-dioxopiperidin-3-yl)-1,3-dioxoisoindolin-4-yl)amino)ethoxy)ethoxy)ethoxy)ethyl)-N-methylacetamide]
- off target degradation of Aurora A (Aurora A): off target degradation of aurora A was still seen at higher doses

Source: patent publication US12233128B2, “Degraders that target ALK and therapeutic uses thereof” (DANA-FARBER CANCER INSTITUTE, INC., priority 2018, dated 2025)
